The target of one test is Neutrophil collagenase (Homo sapiens, UniProt P22894). Briefly: (§1) Inhibition Assay: The inhibition tests and the evaluation of the inhibition constants (Ki) on the various MMPs were carried out as described by Devel et al. (Devel et al. 2006 J. Biol. Chem. (7)).
Test [1] concerns the target Matrix metalloproteinase-14 (Homo sapiens, UniProt P50281). Described as §1.
The next test addresses Stromelysin-2 (Homo sapiens, UniProt P09238). The description is as §1.
Test [2] concerns the target 72 kDa type IV collagenase (Homo sapiens, UniProt P08253). Described as §1.
Test [3] deals with Matrix metalloproteinase-9 (Homo sapiens, UniProt P14780). The description is as §1.
In another test the target is Collagenase 3 (Homo sapiens, UniProt P45452). The description is as §1.
A further test has as its target Stromelysin-1 (Homo sapiens, UniProt P08254). The test is described as §1.
In test [4] the target is Macrophage metalloelastase (Homo sapiens, UniProt P39900). The test is described as §1.

pKi: −log10 of the molar value.

The record followed here is ChEMBL document CHEMBL3638630 (2014).

Stromelysin-1, sequence (P08254 whole entry): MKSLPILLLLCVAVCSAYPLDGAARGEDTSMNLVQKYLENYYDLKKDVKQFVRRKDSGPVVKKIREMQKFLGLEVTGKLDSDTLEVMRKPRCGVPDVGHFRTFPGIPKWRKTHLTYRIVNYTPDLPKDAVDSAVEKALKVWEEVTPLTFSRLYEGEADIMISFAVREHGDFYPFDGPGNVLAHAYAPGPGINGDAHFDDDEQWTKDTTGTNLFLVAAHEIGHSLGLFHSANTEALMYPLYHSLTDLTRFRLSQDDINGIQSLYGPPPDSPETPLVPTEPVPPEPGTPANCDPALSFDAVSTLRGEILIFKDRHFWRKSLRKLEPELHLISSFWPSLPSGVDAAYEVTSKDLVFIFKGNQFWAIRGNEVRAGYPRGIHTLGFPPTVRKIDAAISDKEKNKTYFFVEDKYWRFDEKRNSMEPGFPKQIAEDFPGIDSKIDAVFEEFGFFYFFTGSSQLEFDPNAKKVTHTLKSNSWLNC
Macrophage metalloelastase, sequence (P39900 whole entry): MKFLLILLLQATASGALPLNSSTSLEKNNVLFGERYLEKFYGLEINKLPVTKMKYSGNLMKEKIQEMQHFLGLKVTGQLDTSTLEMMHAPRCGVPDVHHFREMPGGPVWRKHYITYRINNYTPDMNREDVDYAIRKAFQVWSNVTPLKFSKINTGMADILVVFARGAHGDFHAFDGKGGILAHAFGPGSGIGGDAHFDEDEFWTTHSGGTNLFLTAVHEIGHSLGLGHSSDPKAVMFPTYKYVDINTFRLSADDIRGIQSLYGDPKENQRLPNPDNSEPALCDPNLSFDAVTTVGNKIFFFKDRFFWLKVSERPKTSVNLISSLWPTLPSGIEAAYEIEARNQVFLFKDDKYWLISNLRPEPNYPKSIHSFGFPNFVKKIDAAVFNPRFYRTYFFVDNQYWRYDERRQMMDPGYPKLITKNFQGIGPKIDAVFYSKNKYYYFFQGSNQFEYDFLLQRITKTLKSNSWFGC
Neutrophil collagenase, sequence (P22894 whole entry): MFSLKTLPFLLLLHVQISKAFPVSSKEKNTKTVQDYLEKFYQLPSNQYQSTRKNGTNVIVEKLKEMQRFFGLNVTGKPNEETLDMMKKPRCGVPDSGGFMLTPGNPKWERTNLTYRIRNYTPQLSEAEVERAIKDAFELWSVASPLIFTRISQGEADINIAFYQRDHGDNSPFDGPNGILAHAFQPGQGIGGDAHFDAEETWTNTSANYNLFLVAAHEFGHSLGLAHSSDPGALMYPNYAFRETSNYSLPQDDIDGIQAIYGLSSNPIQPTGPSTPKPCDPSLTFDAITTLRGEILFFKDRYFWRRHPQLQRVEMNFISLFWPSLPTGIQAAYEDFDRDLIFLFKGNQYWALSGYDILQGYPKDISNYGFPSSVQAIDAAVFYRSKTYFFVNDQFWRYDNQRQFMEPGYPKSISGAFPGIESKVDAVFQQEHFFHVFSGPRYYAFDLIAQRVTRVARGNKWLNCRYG
72 kDa type IV collagenase, sequence (P08253 whole entry): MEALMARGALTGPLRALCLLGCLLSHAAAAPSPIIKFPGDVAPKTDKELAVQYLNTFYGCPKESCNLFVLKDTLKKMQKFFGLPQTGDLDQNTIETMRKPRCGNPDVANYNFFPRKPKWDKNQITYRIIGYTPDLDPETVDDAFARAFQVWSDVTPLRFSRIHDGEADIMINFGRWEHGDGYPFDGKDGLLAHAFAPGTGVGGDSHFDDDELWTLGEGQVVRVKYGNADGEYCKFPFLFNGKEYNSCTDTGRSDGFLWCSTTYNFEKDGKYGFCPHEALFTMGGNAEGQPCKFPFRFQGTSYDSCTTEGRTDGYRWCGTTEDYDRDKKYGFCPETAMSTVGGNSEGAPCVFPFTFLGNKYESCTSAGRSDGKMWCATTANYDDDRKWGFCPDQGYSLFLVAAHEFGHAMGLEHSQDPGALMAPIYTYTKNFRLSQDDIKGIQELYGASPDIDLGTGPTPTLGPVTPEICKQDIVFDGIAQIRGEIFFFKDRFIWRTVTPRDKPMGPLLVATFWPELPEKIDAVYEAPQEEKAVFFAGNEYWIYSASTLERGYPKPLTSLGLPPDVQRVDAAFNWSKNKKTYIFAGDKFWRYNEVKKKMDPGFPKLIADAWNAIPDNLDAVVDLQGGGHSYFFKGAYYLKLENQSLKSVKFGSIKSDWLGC
Stromelysin-2, sequence (P09238 whole entry): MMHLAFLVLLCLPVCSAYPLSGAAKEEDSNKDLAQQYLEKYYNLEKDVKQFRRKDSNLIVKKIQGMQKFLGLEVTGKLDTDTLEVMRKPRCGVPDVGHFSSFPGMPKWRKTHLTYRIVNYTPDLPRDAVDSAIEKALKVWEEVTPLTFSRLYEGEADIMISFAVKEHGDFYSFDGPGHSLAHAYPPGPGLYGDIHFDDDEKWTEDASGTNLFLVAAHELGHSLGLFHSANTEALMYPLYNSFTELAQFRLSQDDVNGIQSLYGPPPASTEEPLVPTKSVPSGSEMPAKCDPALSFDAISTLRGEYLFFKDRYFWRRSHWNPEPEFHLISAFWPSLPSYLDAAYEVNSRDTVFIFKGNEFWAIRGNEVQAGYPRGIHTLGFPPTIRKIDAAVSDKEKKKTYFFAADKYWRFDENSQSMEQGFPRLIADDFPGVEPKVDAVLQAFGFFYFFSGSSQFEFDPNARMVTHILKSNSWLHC
Matrix metalloproteinase-9, sequence (P14780 whole entry): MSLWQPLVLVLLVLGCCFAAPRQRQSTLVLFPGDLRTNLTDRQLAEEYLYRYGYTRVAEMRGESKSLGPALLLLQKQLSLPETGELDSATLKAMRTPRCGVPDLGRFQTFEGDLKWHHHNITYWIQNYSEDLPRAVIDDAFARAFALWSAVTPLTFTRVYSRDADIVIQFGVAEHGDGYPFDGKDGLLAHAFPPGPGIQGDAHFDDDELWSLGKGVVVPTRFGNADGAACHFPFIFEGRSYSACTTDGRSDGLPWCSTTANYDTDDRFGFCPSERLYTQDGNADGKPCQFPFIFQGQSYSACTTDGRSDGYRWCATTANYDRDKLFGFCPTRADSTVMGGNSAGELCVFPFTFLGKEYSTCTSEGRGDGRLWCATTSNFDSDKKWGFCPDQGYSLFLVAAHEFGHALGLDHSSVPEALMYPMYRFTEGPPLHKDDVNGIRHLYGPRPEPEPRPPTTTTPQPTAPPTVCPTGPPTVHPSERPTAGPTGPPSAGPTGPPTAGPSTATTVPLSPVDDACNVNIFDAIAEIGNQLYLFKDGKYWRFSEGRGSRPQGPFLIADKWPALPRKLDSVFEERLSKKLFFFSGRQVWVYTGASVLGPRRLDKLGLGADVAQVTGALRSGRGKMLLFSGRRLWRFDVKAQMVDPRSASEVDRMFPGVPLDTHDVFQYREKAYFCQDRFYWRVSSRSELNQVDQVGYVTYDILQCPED

`NC(=O)CC[C@H](NC(=O)CCc1ccc(-c2cc(-c3ccccc3)cs2)cc1)C(=O)N[C@@H](CCC(=O)O)C(N)=O`: the pKi was less than 5.00 at Neutrophil collagenase; less than 5.00 in test [1]; less than 5.00 at Stromelysin-2; less than 5.30 in test [2]; less than 5.30 in test [3]; less than 6.00 at Collagenase 3. Further, the pKi at Stromelysin-1 is less than 5.00; in test [4], 6.50.

The pKi is the Ki on a negative log10 scale, so that one unit is a factor of ten.
